Experimental data as given in patent EP1432683B9 (Recordati Ireland Limited, priority 2001, dated 2003).
Structures can show the parent of a compound that is named as a salt. Where two headings read alike, the source gives them in different places.

Assays:
[1] = Relative bioavailability of Form (I) and Form (II) in man; type: in vivo; conditions: 10 mg tablet
Experimental: Blood samples were taken at 15 points from time 0 to 24 h post-dosing and plasma concentrations of lercanidipine were determined with a stereoselective analytical method HPLC-MS/MS.

[2] = Bioavailability of crystalline Forms (I) and (II) in dogs; type: in vivo, Beagle dogs; conditions: for AUC0-t / Cmax / concentration in plasma of lercanidipine (S+R): oral 3 mg/kg
Experimental: A study was carried out on six Beagle dogs to evaluate the bioavailability of crystalline Forms (I) and (II).
Blood samples were taken at given times and plasma concentrations of lercanidipine were determined with a stereoselective analytical method HPLC-MS/MS, according to the following working conditions;
Lercanidipine was extracted from dog plasma by means of a liquid-liquid extraction with a mixture of n-hexane and ethyl ether. The dry residue of the organic phase was taken up with a mixture of methanol and water and a liquid-phase chromatographic separation (LC) was carried out; the two enantiomers of lercanidipine were separated on a CHIROBIOTIC V column (Vancomycin) (particle size […], column size 150 x 4.6 mm (ASTEC, NJ, USA)) and were detected with a mass spectrometer (MS/MS) by using an electrospray technique.
The analytical method was validated in a concentration range between 0.1 and 20 ng/ml of plasma for both enantiomers. The method has shown to be specific with an accuracy of 15%. The average concentrations of lercanidipine in the tables represent the sum of both enantiomers.

[3] = Hygroscopicity by DVS analysis; type: physicochemical; conditions: 25°C
Experimental: The hygroscopicity of both crystalline Forms (I) and (II) was measured with DVS analysis by means of a water absorption analyzer (SURFACE MEASUREMENT SYSTEM, Marion, Buckinghamshire, UK) according to the following working conditions: […]

[4] = Solubility in mixtures of water-ethanol at 25°C and 40°C; type: physicochemical

COC(=O)C1=C(C)NC(C)=C(C(=O)OC(C)(C)CN(C)CCC(c2ccccc2)c2ccccc2)C1c1cccc([N+](=O)[O-])c1 (single isomer, unassigned) [Form (I), lercanidipine hydrochloride]
tmax compared with Form (II) [1]: shorter than that of Form (II) | AUC(0-t) at 24 h ([1]; human, plasma, po, 10 mg, single dose, geom. least square mean): 8.82 ng·h/mL | Cmax ([1]; human, plasma, po, 10 mg, single dose, geom. least square mean, read-out: Cmax): 3.18 ng/mL | Tmax ([1]; human, plasma, po, 10 mg, single dose, median, read-out: tmax): 1.5 h | AUC0-t ([2]; Dog 1, hydrochloride, 3 mg/kg): 15.41 ng/h/mL | Cmax ([2]; Dog 1, hydrochloride, 3 mg/kg): 8.29 ng/mL | Cmax ([2]; Dog 2 (not included in mean), hydrochloride, 3 mg/kg): 128.87 ng/mL | AUC0-t ([2]; Dog 3, hydrochloride, 3 mg/kg): 27.544 ng/h/mL | Cmax ([2]; Dog 3, hydrochloride, 3 mg/kg): 11.62 ng/mL | AUC0-t ([2]; Dog 4, hydrochloride, 3 mg/kg): 46.57 ng/h/mL | Cmax ([2]; Dog 4, hydrochloride, 3 mg/kg): 27.17 ng/mL | AUC0-t ([2]; Dog 5, hydrochloride, 3 mg/kg): 70.39 ng/h/mL | Cmax ([2]; Dog 5, hydrochloride, 3 mg/kg): 22.58 ng/mL | AUC0-t ([2]; Dog 6, hydrochloride, 3 mg/kg): 28.72 ng/h/mL | Cmax ([2]; Dog 6, hydrochloride, 3 mg/kg): 17.83 ng/mL | Cmax ([2]; Mean (n=5, Dog 2 not included), hydrochloride, 3 mg/kg): 17.50 ng/mL | concentration in plasma of lercanidipine (S+R) ([2]; Time 0 h, Dog 1): 0.00 ng/mL | concentration in plasma of lercanidipine (S+R) ([2]; Time 0 h, Dog 2 (not included in mean)): 0.00 ng/mL | concentration in plasma of lercanidipine (S+R) ([2]; Time 0 h, Dog 3): 0.00 ng/mL | concentration in plasma of lercanidipine (S+R) ([2]; Time 0 h, Dog 4): 0.00 ng/mL | concentration in plasma of lercanidipine (S+R) ([2]; Time 0 h, Dog 5): 0.00 ng/mL | concentration in plasma of lercanidipine (S+R) ([2]; Time 0 h, Dog 6): 0.00 ng/mL | concentration in plasma of lercanidipine (S+R) ([2]; Time 0 h, Mean (Dog 2 not included)): 0.00 ng/mL | concentration in plasma of lercanidipine (S+R) ([2]; Time 0.5 h, Dog 2 (not included in mean), hydrochloride, 3 mg/kg, 30 min): 0.20 ng/mL | concentration in plasma of lercanidipine (S+R) ([2]; Time 0.5 h, Dog 3, hydrochloride, 3 mg/kg): 0.00 ng/mL | concentration in plasma of lercanidipine (S+R) ([2]; Time 0.5 h, Dog 4): 0.00 ng/mL | concentration in plasma of lercanidipine (S+R) ([2]; Time 0.5 h, Dog 5): 0.00 ng/mL | concentration in plasma of lercanidipine (S+R) ([2]; Time 0.5 h, Dog 6): 0.00 ng/mL | concentration in plasma of lercanidipine (S+R) ([2]; Time 0.5 h, Mean (Dog 2 not included), hydrochloride, 3 mg/kg): 0.00 ng/mL | concentration in plasma of lercanidipine (S+R) ([2]; Time 1 h, Dog 2 (not included in mean), hydrochloride, 3 mg/kg, 60 min): 0.29 ng/mL | concentration in plasma of lercanidipine (S+R) ([2]; Time 1 h, Dog 3, hydrochloride, 3 mg/kg): 0.00 ng/mL | concentration in plasma of lercanidipine (S+R) ([2]; Time 1 h, Dog 4, hydrochloride, 3 mg/kg): 0.00 ng/mL | concentration in plasma of lercanidipine (S+R) ([2]; Time 1 h, Dog 5, hydrochloride, 3 mg/kg): 0.00 ng/mL | concentration in plasma of lercanidipine (S+R) ([2]; Time 1 h, Dog 6): 0.00 ng/mL | concentration in plasma of lercanidipine (S+R) ([2]; Time 1 h, Mean (Dog 2 not included), hydrochloride, 3 mg/kg, 60 min): 0.12 ng/mL | concentration in plasma of lercanidipine (S+R) ([2]; Time 1.5 h, Dog 1, hydrochloride, 3 mg/kg, 90 min): 1.83 ng/mL | concentration in plasma of lercanidipine (S+R) ([2]; Time 1.5 h, Dog 2 (not included in mean), hydrochloride, 3 mg/kg, 90 min): 1.06 ng/mL | concentration in plasma of lercanidipine (S+R) ([2]; Time 1.5 h, Dog 3, hydrochloride, 3 mg/kg, 90 min): 0.32 ng/mL | concentration in plasma of lercanidipine (S+R) ([2]; Time 1.5 h, Dog 4, hydrochloride, 3 mg/kg): 0.00 ng/mL | concentration in plasma of lercanidipine (S+R) ([2]; Time 1.5 h, Dog 5, hydrochloride, 3 mg/kg, 90 min): 1.33 ng/mL | concentration in plasma of lercanidipine (S+R) ([2]; Time 1.5 h, Dog 6, hydrochloride, 3 mg/kg): 0.00 ng/mL | concentration in plasma of lercanidipine (S+R) ([2]; Time 1.5 h, Mean (Dog 2 not included), hydrochloride, 3 mg/kg, 90 min): 0.70 ng/mL | concentration in plasma of lercanidipine (S+R) ([2]; Time 2 h, Dog 1, hydrochloride, 3 mg/kg, 120 min): 8.29 ng/mL | concentration in plasma of lercanidipine (S+R) ([2]; Time 2 h, Dog 2 (not included in mean), hydrochloride, 3 mg/kg, 120 min): 8.94 ng/mL | concentration in plasma of lercanidipine (S+R) ([2]; Time 2 h, Dog 3, hydrochloride, 3 mg/kg, 120 min): 0.94 ng/mL | concentration in plasma of lercanidipine (S+R) ([2]; Time 2 h, Dog 4, hydrochloride, 3 mg/kg, 120 min): 0.35 ng/mL | concentration in plasma of lercanidipine (S+R) ([2]; Time 2 h, Dog 5, hydrochloride, 3 mg/kg, 120 min): 17.11 ng/mL | concentration in plasma of lercanidipine (S+R) ([2]; Time 2 h, Dog 6, hydrochloride, 3 mg/kg, 120 min): 0.28 ng/mL | concentration in plasma of lercanidipine (S+R) ([2]; Time 2 h, Mean (Dog 2 not included), hydrochloride, 3 mg/kg, 120 min): 5.39 ng/mL | concentration in plasma of lercanidipine (S+R) ([2]; Time 3 h, Dog 1, hydrochloride, 3 mg/kg, 180 min): 4.44 ng/mL | concentration in plasma of lercanidipine (S+R) ([2]; Time 3 h, Dog 2 (not included in mean), hydrochloride, 3 mg/kg, 180 min): 36.39 ng/mL | concentration in plasma of lercanidipine (S+R) ([2]; Time 3 h, Dog 3, hydrochloride, 3 mg/kg, 180 min): 0.92 ng/mL | concentration in plasma of lercanidipine (S+R) ([2]; Time 3 h, Dog 4, hydrochloride, 3 mg/kg, 180 min): 27.17 ng/mL | concentration in plasma of lercanidipine (S+R) ([2]; Time 3 h, Dog 5, hydrochloride, 3 mg/kg, 180 min): 22.58 ng/mL | concentration in plasma of lercanidipine (S+R) ([2]; Time 3 h, Dog 6, hydrochloride, 3 mg/kg, 180 min): 1.29 ng/mL | concentration in plasma of lercanidipine (S+R) ([2]; Time 3 h, Mean (Dog 2 not included), hydrochloride, 3 mg/kg, 180 min): 11.28 ng/mL | concentration in plasma of lercanidipine (S+R) ([2]; Time 4 h, Dog 1, hydrochloride, 3 mg/kg, 240 min): 1.81 ng/mL | concentration in plasma of lercanidipine (S+R) ([2]; Time 4 h, Dog 2 (not included in mean), hydrochloride, 3 mg/kg, 240 min): 128.87 ng/mL | concentration in plasma of lercanidipine (S+R) ([2]; Time 4 h, Dog 3, hydrochloride, 3 mg/kg, 240 min): 9.42 ng/mL | concentration in plasma of lercanidipine (S+R) ([2]; Time 4 h, Dog 4, hydrochloride, 3 mg/kg, 240 min): 11.07 ng/mL | concentration in plasma of lercanidipine (S+R) ([2]; Time 4 h, Dog 5, hydrochloride, 3 mg/kg, 240 min): 16.39 ng/mL | concentration in plasma of lercanidipine (S+R) ([2]; Time 4 h, Dog 6, hydrochloride, 3 mg/kg, 240 min): 6.26 ng/mL | concentration in plasma of lercanidipine (S+R) ([2]; Time 4 h, Mean (Dog 2 not included), hydrochloride, 3 mg/kg, 240 min): 8.99 ng/mL | concentration in plasma of lercanidipine (S+R) ([2]; Time 6 h, Dog 1, hydrochloride, 3 mg/kg, 360 min): 0.80 ng/mL | concentration in plasma of lercanidipine (S+R) ([2]; Time 6 h, Dog 2 (not included in mean), hydrochloride, 3 mg/kg, 360 min): 26.65 ng/mL | concentration in plasma of lercanidipine (S+R) ([2]; Time 6 h, Dog 3, hydrochloride, 3 mg/kg, 360 min): 11.62 ng/mL | concentration in plasma of lercanidipine (S+R) ([2]; Time 6 h, Dog 4, hydrochloride, 3 mg/kg, 360 min): 2.53 ng/mL | Tmax ([2]; dog, plasma, po, 3 mg/kg, Dog 1, read-out: Tmax): 2 h | Tmax ([2]; dog, plasma, po, 3 mg/kg, Dog 4, read-out: Tmax): 3 h | Tmax ([2]; dog, plasma, po, 3 mg/kg, Dog 5, read-out: Tmax): 3 h | Tmax ([2]; dog, plasma, po, 3 mg/kg, Dog 6, read-out: Tmax): 6 h | Tmax ([2]; dog, plasma, po, 3 mg/kg, Mean (n=5, Dog 2 not included), read-out: Tmax): 4 h | concentration at 0.5 h ([2]; dog, plasma, po, 3 mg/kg, Time 0.5 h, Dog 1, read-out: concentration in plasma of lercanidipine (S+R)): 0.1 ng/mL | concentration at 1 h ([2]; dog, plasma, po, 3 mg/kg, Time 1 h, Dog 1, read-out: concentration in plasma of lercanidipine (S+R)): 0.59 ng/mL | concentration at 6 h ([2]; dog, plasma, po, 3 mg/kg, Time 6 h (last sampling time), Mean (Dog 2 not included), read-out: concentration in plasma of lercanidipine (S+R)): 8.5 ± 6.5 ng/mL | concentration at 6 h ([2]; dog, plasma, po, 3 mg/kg, Time 6 h, Dog 5, read-out: concentration in plasma of lercanidipine (S+R)): 9.73 ng/mL | concentration at 6 h ([2]; dog, plasma, po, 3 mg/kg, Time 6 h, Dog 6, read-out: concentration in plasma of lercanidipine (S+R)): 17.8 ng/mL | mass change ([3]; at 0% RH): -0.3% | mass change ([3]; at 95% RH): +0.15% | solubility compared with Form (II) ([4]; 25°C and 40°C): higher than that of crystalline Form (II) | water concentration at which the maximum solubility is reached ([4]; at both 25°C and 40°C): 20%
